Data published in patent publication US11850334B2, “Immobilised biological entities” (CARMEDA AB, priority 2018, dated 2023).

Tested on: FXa
Experiment: Anti-FXa activity of heparin fragments in solution, compared with International Standard (Evaluation Method C)
Type: biochemical
Details: not immobilized, calculated towards Low Molecular Heparin 2nd International Standard
Experimental: Evaluation Method C: Anti-FXa Activity Determination of Heparin Fragments in Solution, Compared with International Standard
The anticoagulant activity of the heparin fragments are determined in an anti-FXa assay. This method measures anti-FXa activity of heparin essentially according to USP<208> Anti-FXa and Anti-FIIa assays for unfractionated and low molecular weight heparins. The method is based on heparin's ability to accelerate antithrombin inhibition of FXa in vitro, where the residual FXa activity is detected using a chromogenic FXa substrate (CS 11(65)). The results expressed as IU/mg (international unit/mg) are calculated using the parallel-line model, towards the Low Molecular Heparin 2nd International Standard.
Anti-FXa activity was determined by Evaluation Method Con example 1.2 (alpha), 1.1 (beta), 2.1, 2.2 and 2.3 (see Table 3). All heparin fragments tested were in solution and not immobilized to a surface.

5-Aminopentyl 2-deoxy-2-sulfamido-6-O-sulfo-α-D-glucopyranosyl-(1→4)-β-D-glucopyranosyluronic acid-(1→4)-2-deoxy-2-sulfamido-3,6-di-O-sulfo-α-D-glucopyranosyl-(1→4)-2-O-sulfo-α-L-idopyranosyluronic acid-(1→4)-2-deoxy-2-sulfamido-6-O-sulfo-β-D-glucopyranoside [Example 1.1]
anti-FXa activity: 385 IU/mg

NCCCCCO[C@H]1O[C@H](COS(=O)(=O)O)[C@@H](O[C@@H]2O[C@@H](C(=O)O)[C@@H](O[C@H]3O[C@H](COS(=O)(=O)O)[C@@H](O[C@@H]4O[C@H](C(=O)O)[C@@H](O[C@H]5O[C@H](COS(=O)(=O)O)[C@@H](O)[C@H](O)[C@H]5NS(=O)(=O)O)[C@H](O)[C@H]4O)[C@H](OS(=O)(=O)O)[C@H]3NS(=O)(=O)O)[C@H](O)[C@H]2OS(=O)(=O)O)[C@H](O)[C@H]1NS(=O)(=O)O [Example 1.2, 5-Aminopentyl 2-deoxy-2-sulfamido-6-O-sulfo-α-D-glucopyranosyl-(1→4)-β-D-glucopyranosyluronic acid-(1→4)-2-deoxy-2-sulfamido-3,6-di-O-sulfo-α-D-glucopyranosyl-(1→4)-2-O-sulfo-α-L-idopyranosyluronic acid-(1→4)-2-deoxy-2-sulfamido-6-O-sulfo-α-D-glucopyranoside]
anti-FXa activity: 330 IU/mg
